The Ki is the dissociation constant of the complex between target and ligand, obtained from inhibition or displacement.

In patent publication US9580396B2, “C6-spiro iminothiadiazine dioxides as BACE inhibitors, compositions, and their use” (Merck Sharp & Dohme Corp., priority 2012, dated 2017) one finds Ki data, which are given here for 44 compounds.

Test [1] addresses soluble human BACE1 catalytic domain (Homo sapiens (Human), UniProt P56817). The test can be described thus: BACE1 HTRF FRET Assay. It counts as biochemical. The note with it: Ki calculated from IC50 using the Cheng-Prusoff equation; QSY7-APPswe-Eu substrate, pH 5.0. An excerpt:
Na^+-Acetate pH 5.0; 1% Brij-35; Glycerol; Dimethyl Sulfoxide (DMSO); Recombinant human soluble BACE1 catalytic domain (>95% pure); APP Swedish mutant peptide substrate (QSY7-APP^swe-Eu): QSY7-EISEVNLDAEFC-Europium-amide.
A homogeneous time-resolved FRET assay can be used to determine IC50 values for inhibitors of the soluble human BACE1 catalytic domain. This assay monitors the increase of 620 nm fluorescence that resulted from BACE1 cleavage of an APPswedish APP^swe mutant peptide FRET substrate (QSY7-EISEVNLDAEFC-Europium-amide). This substrate contains an N-terminal QSY7 moiety that serves as a quencher of the C-terminal Europium fluorophore (620 nm Em). In the absence of enzyme activity, 620 nm fluorescence is low in the assay and increased linearly over 3 hours in the presence of uninhibited BACE1 enzyme Inhibition of BACE1 cleavage of the QSY7-APP^swe-Eu substrate by inhibitors is manifested as a suppression of 620 nm fluorescence.
Varying concentrations of inhibitors at 3× the final desired concentration in a volume of 10 ul are preincubated with purified human BACE1 catalytic domain (3 nM in 10 μl) for 30 minutes at 30° C. in reaction buffer containing 20 mM Na-Acetate pH 5.0, 10% glycerol, 0.1% Brij-35 and 7.5% DSMO. Reactions are initiated by addition of 10 μl of 600 nM QSY7-APP^swe-Eu substrate (200 nM final) to give a final reaction volume of 30 μl in a 384 well Nunc HTRF plate. The reactions are incubated at 30° C. for 1.5 hours. The 620 nm fluorescence is then read on a Rubystar HTRF plate reader (BMG Labtechnologies) using a 50 millisecond delay followed by a 400 millisecond acquisition time window Inhibitor IC50 values are derived from non-linear regression analysis of concentration response curves. Ki values are then calculated from IC50 values using the Cheng-Prusoff equation using a previously determined […] of 8 μM for the QSY7-APP^swe-Eu substrate at BACE1.

Test [2] deals with purified human autoBACE-2 (Homo sapiens (Human), UniProt Q9Y5Z0). Put plainly: BACE-2 Assay (BACE-HTRF assay). It counts as biochemical. The note with it: Ki calculated from IC50 using the Cheng-Prusoff equation; QSY7-EISEVNLDAEFC-Eu-amide substrate, pH 5.0; read-out: BACE2 Ki. Here is the method: Inhibitor IC50s at purified human autoBACE-2 are determined in a time-resolved endpoint proteolysis assay that measures hydrolysis of the QSY7-[…]-Eu-amide FRET peptide substrate (BACE-HTRF assay). […] DMSO is present at 5% final concentration in the assay. Following laser excitation of sample wells at 320 nm, the fluorescence signal at 620 nm is collected for 400 ms following a 50 μs delay on a RUBYstar HTRF plate reader (BMG Labtechnologies). Raw RFU data is normalized to maximum (1.0 nM BACE/DMSO) and minimum (no enzyme/DMSO) RFU values. […] The Ki values are calculated from the IC50 using the Cheng-Prusoff equation.
purified human autoBACE-2, sequence (Q9Y5Z0 63-473): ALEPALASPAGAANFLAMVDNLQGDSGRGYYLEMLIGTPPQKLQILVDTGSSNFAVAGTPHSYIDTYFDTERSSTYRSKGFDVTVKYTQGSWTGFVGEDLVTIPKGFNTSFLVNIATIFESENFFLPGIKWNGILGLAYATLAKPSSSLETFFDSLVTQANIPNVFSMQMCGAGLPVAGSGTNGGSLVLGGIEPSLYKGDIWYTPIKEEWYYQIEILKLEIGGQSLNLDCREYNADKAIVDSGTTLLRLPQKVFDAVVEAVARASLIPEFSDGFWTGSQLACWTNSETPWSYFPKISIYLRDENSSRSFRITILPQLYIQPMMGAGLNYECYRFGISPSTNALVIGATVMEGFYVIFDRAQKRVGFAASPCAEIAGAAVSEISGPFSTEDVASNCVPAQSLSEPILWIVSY

Each structure is given as a SMILES string.

soluble human BACE1 catalytic domain, sequence (P56817 75-416): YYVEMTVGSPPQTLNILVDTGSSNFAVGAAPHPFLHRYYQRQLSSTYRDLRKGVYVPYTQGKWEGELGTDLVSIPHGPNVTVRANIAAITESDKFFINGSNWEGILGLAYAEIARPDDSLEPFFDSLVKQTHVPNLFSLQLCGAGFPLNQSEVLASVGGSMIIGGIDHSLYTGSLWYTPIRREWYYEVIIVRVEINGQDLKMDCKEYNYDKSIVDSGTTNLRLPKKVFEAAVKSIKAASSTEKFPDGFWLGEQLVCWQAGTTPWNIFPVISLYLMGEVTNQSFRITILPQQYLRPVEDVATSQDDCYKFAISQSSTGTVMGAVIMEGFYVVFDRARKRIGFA

Take `CN1C(=N)N[C@@]2(CCOc3ccc(NC(=O)c4ccc(OCF)cn4)cc32)CS1(=O)=O` [Example 2a]: the results for the Ki in test [1] and in test [2] were 91 nM and 59 nM, respectively.
For `COc1cnc(C(=O)Nc2ccc3c(c2)[C@]2(CCO3)CS(=O)(=O)N(C)C(=N)N2)cn1` [Example 2l], the figures for the Ki in test [1] and in test [2] were 212 nM and 254 nM, respectively.
`C#CCOc1cnc(C(=O)Nc2ccc3c(c2)[C@]2(CCC3)CS(=O)(=O)N(C)C(=N)N2)cn1` [Example 5l]: the Ki in test [1] is 11 nM; in test [2], 77 nM.
Consider `COc1cnc(C(=O)Nc2ccc3c(c2)[C@]2(CCO3)CS(=O)(=O)N(C)C(=N)N2)c(C)c1` [Example 2i], for which the Ki in test [1] is 168 nM; in test [2], 29 nM.
Take `CN1C(=N)N[C@@]2(CCOc3ccc(NC(=O)c4ccn(C(F)F)n4)cc32)CS1(=O)=O` [Example 2p]: the inhibition constant (Ki) in test [1] was 20 nM; in test [2] it was 3 nM.
Take `Cc1nc(C(=O)Nc2ccc3c(c2)[C@]2(CCO3)CS(=O)(=O)N(C)C(=N)N2)no1` [Example 2q]: the inhibition constant (Ki) in test [1] is 367 nM; in test [2] it was 31 nM.
On the same counts, the results for `CN1C(=N)N[C@@]2(CCOc3ccc(NC(=O)C(F)F)cc32)CS1(=O)=O` [Example 1d] are 2280 nM and 728 nM.
For the compound `CN1C(=N)N[C@@]2(CCOc3ccc(NC(=O)c4ccc(F)cn4)cc32)CS1(=O)=O` [Example 2t], the inhibition constant (Ki) in test [1] is 205 nM; in test [2] it was 31 nM.
As for `CN1C(=N)N[C@@]2(CCCc3ccc(NC(=O)c4ccc(C#N)cn4)cc32)CS1(=O)=O` [Example 5i], the figures for the inhibitory constant (Ki) in test [1] and in test [2] were 19 nM and 44 nM, respectively.
For `CN1C(=N)N[C@@]2(CCCc3ccc(NC(=O)c4ccc(C(F)(F)F)cn4)cc32)CS1(=O)=O` [Example 5v], the Ki in test [1] is 55 nM; in test [2] it was 171 nM.
In the case of `CN1C(=N)N[C@@]2(CCCc3ccc(NC(=O)c4ccc(F)cn4)cc32)CS1(=O)=O` [Example 5b], the Ki was 192 nM in test [1] and 28 nM in test [2].
Taken in the same sequence, the figures for `CN1C(=N)N[C@@]2(CCOc3ccc(NC(=O)c4cnc(OCCF)cn4)cc32)CS1(=O)=O` [Example 2w] were 229 nM and 572 nM.
Turning to `CN1C(=N)N[C@@]2(CCCc3ccc(NC(=O)c4ncc(C(F)(F)F)cn4)cc32)CS1(=O)=O` [Example 5j], the results for the inhibitory constant (Ki) in test [1] and in test [2] were 468 nM and 423 nM, respectively.
With `CN1C(=N)N[C@@]2(CCCc3ccc(NC(=O)c4cnc(OCC(F)(F)F)cn4)cc32)CS1(=O)=O` [Example 5m], the inhibition constant Ki in test [1] is 72 nM; in test [2] it was 508 nM.
Take `Cc1nc(C(=O)Nc2ccc3c(c2)[C@]2(CCC3)CS(=O)(=O)N(C)C(=N)N2)co1` [Example 5h]: the results for the inhibitory constant (Ki) in test [1] and in test [2] were 108 nM and 11 nM, respectively.
In the case of `CN1C(=N)N[C@@]2(CCOc3ccc(NC(=O)c4cnc(C(F)(F)F)cn4)cc32)CS1(=O)=O` [Example 2m], the inhibition constant (Ki) in test [1] is 303 nM; in test [2], 1150 nM.
Regarding `CN1C(=N)N[C@@]2(CCCc3ccc(NC(=O)c4ncc(Cl)cc4F)cc32)CS1(=O)=O` [Example 5k], the Ki in test [1] was 54 nM; in test [2], 8 nM.
On the same counts, the results for `CN1C(=N)N[C@@]2(CCOc3ccc(NC(=O)c4cc5ccccn5n4)cc32)CS1(=O)=O` [Example 2n] are 1490 nM and 337 nM.
Consider `CN1C(=N)N[C@@]2(CCCc3ccc(NC(=O)c4ccn(C(F)F)n4)cc32)CS1(=O)=O` [Example 5w], for which the Ki was 20 nM in test [1] and 3 nM in test [2].
Taken in the same sequence, the figures for `CN1C(=N)N[C@@]2(CCOc3ccc(NC(=O)c4ncc(Cl)cc4F)cc32)CS1(=O)=O` [Example 2e] were 49 nM and 9 nM.
Consider `CN1C(=N)N[C@@]2(CCCc3ccc(NC(=O)c4cc5ccccn5n4)cc32)CS1(=O)=O` [Example 5u], for which the Ki was 1340 nM in test [1] and 385 nM in test [2].
For `C#CCOc1ccc(C(=O)Nc2ccc3c(c2)[C@]2(CCC3)CS(=O)(=O)N(C)C(=N)N2)nc1` [Example 5n], the Ki in test [1] is 42 nM; in test [2] it was 221 nM.
As to `CN1C(=N)N[C@@]2(CCOc3ccc(NC(=O)c4cn5cc(C#N)ccc5n4)cc32)CS1(=O)=O` [Example 2r], the figures for the Ki in test [1] and in test [2] were 604 nM and 6910 nM, respectively.
Take `CN1C(=N)N[C@@]2(CCOc3ccc(NC(=O)c4cnc(OCC(F)(F)F)cn4)cc32)CS1(=O)=O` [Example 2g]: the inhibition constant (Ki) in test [1] was 70 nM; in test [2], 699 nM.
Taken in the same sequence, the figures for `CN1C(=N)N[C@@]2(CCCc3ccc(NC(=O)C(F)F)cc32)CS1(=O)=O` [Example 4d] were 2580 nM and 515 nM.
On the same counts, the results for `CN1C(=N)N[C@@]2(CCOc3ccc(NC(=O)c4ccc(OC(F)F)cn4)cc32)CS1(=O)=O` [Example 2u] are 44 nM and 166 nM.
`COc1ccc(C(=O)Nc2ccc3c(c2)[C@]2(COC3)CS(=O)(=O)N(C)C(=N)N2)nc1` [Example 3b]: the Ki in test [1] was 1160 nM; in test [2] it was 354 nM.
Regarding `COCC(=O)Nc1ccc2c(c1)[C@]1(CCC2)CS(=O)(=O)N(C)C(=N)N1` [Example 4c], the figures for the inhibitory constant (Ki) in test [1] and in test [2] were 2120 nM and 260 nM, respectively.
As for `C#CCOc1cnc(C(=O)Nc2ccc3c(c2)[C@]2(CCO3)CS(=O)(=O)N(C)C(=N)N2)cn1` [Example 2f], the figures for the Ki in test [1] and in test [2] were 13 nM and 138 nM, respectively.
Turning to `COc1cnc(C(=O)Nc2ccc3c(c2)[C@]2(CCC3)CS(=O)(=O)N(C)C(=N)N2)cn1` [Example 5r], the figures for the inhibitory constant (Ki) in test [1] and in test [2] were 144 nM and 177 nM, respectively.
Take `Cc1nc(C(=O)Nc2ccc3c(c2)[C@]2(CCO3)CS(=O)(=O)N(C)C(=N)N2)co1` [Example 2b]: the inhibition constant (Ki) in test [1] was 142 nM; in test [2], 20 nM.
In the case of `CN1C(=N)N[C@@]2(CCCc3ccc(NC(=O)c4ccc(Cl)cn4)cc32)CS1(=O)=O` [Example 4a], the inhibitory constant (Ki) in test [1] is 58 nM; in test [2], 15 nM.
For the compound `CN1C(=N)N[C@@]2(CCCc3ccc(NC(=O)c4ccc(OC(F)(F)F)cn4)cc32)CS1(=O)=O` [Example 5d], the inhibitory constant (Ki) in test [1] was 55 nM; in test [2] it was 219 nM.
Turning to `COc1cnc(C(=O)Nc2ccc3c(c2)[C@]2(CCC3)CS(=O)(=O)N(C)C(=N)N2)c(C)n1` [Example 5p], the Ki in test [1] is 224 nM; in test [2], 123 nM.
On the same counts, the results for `CN1C(=N)N[C@@]2(CCCc3ccc(NC(=O)c4ccc(OCF)cn4)cc32)CS1(=O)=O` [Example 5g] are 77 nM and 33 nM.
For `COc1cnc(C(=O)Nc2ccc3c(c2)[C@]2(CCO3)CS(=O)(=O)N(C)C(=N)N2)c(C)n1` [Example 2j], the Ki in test [1] is 294 nM; in test [2], 160 nM.
Regarding `CN1C(=N)N[C@@]2(COCc3ccc(NC(=O)c4ccc(Cl)cn4)cc32)CS1(=O)=O` [Example 3a], the inhibition constant (Ki) in test [1] was 272 nM; in test [2], 58 nM.
As to `CN1C(=N)N[C@@]2(CCCc3ccc(NC(=O)c4cnc(OCCF)cn4)cc32)CS1(=O)=O` [Example 5e], the Ki is 257 nM in test [1] and 487 nM in test [2].
For the compound `CN1C(=N)N[C@@]2(CCOc3ccc(NC(=O)c4ccc(C(F)(F)F)cn4)cc32)CS1(=O)=O` [Example 2o], the Ki is 77 nM in test [1] and 283 nM in test [2].
On the same counts, the results for `CN1C(=N)N[C@@]2(CCOc3ccc(NC(=O)c4ccc(OC(F)(F)F)cn4)cc32)CS1(=O)=O` [Example 2v] are 52 nM and 261 nM.
With `CN1C(=N)N[C@@]2(CCOc3ccc(NC(=O)c4ncc(C(F)(F)F)cn4)cc32)CS1(=O)=O` [Example 2d], the values for the Ki in test [1] and in test [2] were 579 nM and 780 nM, respectively.
As for `C#CCOc1ccc(C(=O)Nc2ccc3c(c2)[C@]2(CCO3)CS(=O)(=O)N(C)C(=N)N2)nc1` [Example 2h], the inhibitory constant (Ki) is 33 nM in test [1] and 313 nM in test [2].
For the compound `CN1C(=N)N[C@@]2(CCCc3ccc(NC(=O)c4cnc(C(F)(F)F)cn4)cc32)CS1(=O)=O` [Example 5s], the inhibitory constant (Ki) in test [1] is 253 nM; in test [2] it was 685 nM.
For the compound `CN1C(=N)N[C@@]2(CCOc3ccc(NC(=O)c4cnsn4)cc32)CS1(=O)=O` [Example 2s], the values for the inhibition constant (Ki) in test [1] and in test [2] were 240 nM and 46 nM, respectively.
